Results: PubChem BioAssay (NCI)
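GI50 marks 50% less growth. TGI denotes the concentration required for complete inhibition of growth.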

Experiments:
Test in all cases: growth of human tumour cells (NCI), 384-well format
[1] = tested on: HT29 colon
[2] = tested on: TK-10 renal
[3] = tested on: MDA-MB-231 breast
[4] = tested on: HCT-15 colon
[5] = tested on: SK-OV-3 ovarian
[6] = tested on: DU-145 prostate
[7] = tested on: LOX IMVI melanoma
[8] = tested on: A498 renal
[9] = tested on: SF-295 CNS
[10] = tested on: MDA-MB-435 melanoma
[11] = tested on: COLO 205 colon
[12] = tested on: PC-3 prostate
[13] = tested on: OVCAR-8 ovarian
[14] = tested on: K-562 leukemia
[15] = tested on: UACC-257 melanoma
[16] = tested on: SK-MEL-5 melanoma
[17] = tested on: HCC-2998 colon
[18] = tested on: U251 glioblastoma
[19] = tested on: BT-549 breast
[20] = tested on: RXF 393 renal
[21] = tested on: NCI-H23 lung
[22] = tested on: SNB-75 CNS
[23] = tested on: HS 578T breast
[24] = tested on: SNB-19 CNS
[25] = tested on: OVCAR-3 ovarian
[26] = tested on: HOP-62 NSCLC
[27] = tested on: SR leukemia
[28] = tested on: SN12C renal
[29] = tested on: SK-MEL-28 melanoma
[30] = tested on: NCI-H322M lung
[31] = tested on: A549 NSCLC
[32] = tested on: ACHN renal
[33] = tested on: HCT-116 colon
[34] = tested on: CCRF-CEM leukemia
[35] = tested on: MALME-3M melanoma
[36] = tested on: OVCAR-4 ovarian
[37] = tested on: KM12 colon
[38] = tested on: 786-0 renal
[39] = tested on: NCI/ADR-RES ovarian
[40] = tested on: EKVX NSCLC
[41] = tested on: NCI-H522 lung
[42] = tested on: T-47D breast
[43] = tested on: M14 melanoma
[44] = tested on: HOP-92 NSCLC
[45] = tested on: UO-31 renal
[46] = tested on: SF-539 CNS
[47] = tested on: CAKI-1 renal
[48] = tested on: UACC-62 melanoma
[49] = tested on: RPMI-8226 leukemia
[50] = tested on: SW-620 colon
[51] = tested on: NCI-H460 NSCLC
[52] = tested on: SF-268 CNS
[53] = tested on: NCI-H226 lung
[54] = tested on: MDA-MB-468 breast
[55] = tested on: MOLT-4 leukemia
[56] = tested on: MCF7 breast
[57] = tested on: HL-60(TB) leukemia
[58] = tested on: IGROV1 ovarian

Question: How did the GI50 [1] turn out when `Cc1nc2ccc(NC(=O)CCNC(=O)CCCc3ccc(CC(C(=O)O)C(=O)O)cc3)cc2s1` was run?
Answer: Its GI50 is greater than 100 µM.

Question: What about the TGI [1] of the same compound?
Answer: The TGI was greater than 100 µM.

Question: And the GI50 [2]?
Answer: Its GI50 is greater than 100 µM.

Question: What about the TGI [2] of the same compound?
Answer: Its TGI is greater than 100 µM.

Question: What about the GI50 [3] of the same compound?
Answer: The GI50 was greater than 100 µM.

Question: And the TGI [3]?
Answer: Its TGI is greater than 100 µM.

Question: And the GI50 [4]?
Answer: Its GI50 is greater than 100 µM.

Question: And the TGI [4]?
Answer: The TGI was greater than 100 µM.

Question: And the GI50 [5]?
Answer: The GI50 was greater than 100 µM.

Question: And the TGI [5]?
Answer: The TGI was greater than 100 µM.

Question: And the GI50 [6]?
Answer: The GI50 was greater than 100 µM.

Question: And the TGI [6]?
Answer: The TGI was greater than 100 µM.

Question: What about the GI50 [7] of the same compound?
Answer: Its GI50 is greater than 100 µM.

Question: What about the TGI [7] of the same compound?
Answer: The TGI was greater than 100 µM.

Question: What about the GI50 [8] of the same compound?
Answer: The GI50 was greater than 100 µM.

Question: What about the TGI [8] of the same compound?
Answer: Its TGI is greater than 100 µM.

Question: What about the GI50 [9] of the same compound?
Answer: Its GI50 is greater than 100 µM.

Question: What about the TGI [9] of the same compound?
Answer: Its TGI is greater than 100 µM.

Question: And the GI50 [10]?
Answer: Its GI50 is greater than 100 µM.

Question: And the TGI [10]?
Answer: The TGI was greater than 100 µM.

Question: And the GI50 [11]?
Answer: Its GI50 is greater than 100 µM.

Question: What about the TGI [11] of the same compound?
Answer: Its TGI is greater than 100 µM.

Question: What about the GI50 [12] of the same compound?
Answer: The GI50 was greater than 100 µM.

Question: What about the TGI [12] of the same compound?
Answer: Its TGI is greater than 100 µM.

Question: And the GI50 [13]?
Answer: The GI50 was greater than 100 µM.

Question: What about the TGI [13] of the same compound?
Answer: Its TGI is greater than 100 µM.

Question: What about the GI50 [14] of the same compound?
Answer: Its GI50 is greater than 100 µM.

Question: What about the TGI [14] of the same compound?
Answer: The TGI was greater than 100 µM.

Question: And the GI50 [15]?
Answer: The GI50 was greater than 100 µM.

Question: And the TGI [15]?
Answer: The TGI was greater than 100 µM.

Question: What about the GI50 [16] of the same compound?
Answer: Its GI50 is greater than 100 µM.

Question: What about the TGI [16] of the same compound?
Answer: The TGI was greater than 100 µM.

Question: What about the GI50 [17] of the same compound?
Answer: Its GI50 is greater than 100 µM.

Question: And the TGI [17]?
Answer: The TGI was greater than 100 µM.

Question: And the GI50 [18]?
Answer: Its GI50 is greater than 100 µM.

Question: And the TGI [18]?
Answer: Its TGI is greater than 100 µM.

Question: And the GI50 [19]?
Answer: Its GI50 is greater than 100 µM.

Question: What about the TGI [19] of the same compound?
Answer: Its TGI is greater than 100 µM.

Question: What about the GI50 [20] of the same compound?
Answer: Its GI50 is greater than 100 µM.

Question: What about the TGI [20] of the same compound?
Answer: The TGI was greater than 100 µM.

Question: And the GI50 [21]?
Answer: The GI50 was greater than 100 µM.

Question: And the TGI [21]?
Answer: The TGI was greater than 100 µM.

Question: What about the GI50 [22] of the same compound?
Answer: The GI50 was greater than 100 µM.

Question: And the TGI [22]?
Answer: The TGI was greater than 100 µM.

Question: What about the GI50 [23] of the same compound?
Answer: Its GI50 is greater than 100 µM.

Question: What about the TGI [23] of the same compound?
Answer: Its TGI is greater than 100 µM.

Question: What about the GI50 [24] of the same compound?
Answer: The GI50 was greater than 100 µM.

Question: What about the TGI [24] of the same compound?
Answer: Its TGI is greater than 100 µM.

Question: And the GI50 [25]?
Answer: Its GI50 is greater than 100 µM.

Question: And the TGI [25]?
Answer: The TGI was greater than 100 µM.

Question: What about the GI50 [26] of the same compound?
Answer: Its GI50 is greater than 100 µM.

Question: What about the TGI [26] of the same compound?
Answer: Its TGI is greater than 100 µM.

Question: What about the GI50 [27] of the same compound?
Answer: Its GI50 is greater than 100 µM.

Question: What about the TGI [27] of the same compound?
Answer: Its TGI is greater than 100 µM.

Question: And the GI50 [28]?
Answer: The GI50 was greater than 100 µM.

Question: And the TGI [28]?
Answer: The TGI was greater than 100 µM.

Question: And the GI50 [29]?
Answer: The GI50 was greater than 100 µM.

Question: And the TGI [29]?
Answer: The TGI was greater than 100 µM.

Question: And the GI50 [30]?
Answer: The GI50 was greater than 100 µM.

Question: And the TGI [30]?
Answer: Its TGI is greater than 100 µM.

Question: What about the GI50 [31] of the same compound?
Answer: Its GI50 is greater than 100 µM.

Question: What about the TGI [31] of the same compound?
Answer: The TGI was greater than 100 µM.

Question: And the GI50 [32]?
Answer: Its GI50 is greater than 100 µM.

Question: And the TGI [32]?
Answer: Its TGI is greater than 100 µM.

Question: And the GI50 [33]?
Answer: Its GI50 is greater than 100 µM.

Question: And the TGI [33]?
Answer: The TGI was greater than 100 µM.

Question: And the GI50 [34]?
Answer: Its GI50 is greater than 100 µM.

Question: What about the TGI [34] of the same compound?
Answer: The TGI was greater than 100 µM.

Question: What about the GI50 [35] of the same compound?
Answer: Its GI50 is greater than 100 µM.

Question: What about the TGI [35] of the same compound?
Answer: Its TGI is greater than 100 µM.

Question: And the GI50 [36]?
Answer: Its GI50 is greater than 100 µM.

Question: And the TGI [36]?
Answer: Its TGI is greater than 100 µM.

Question: And the GI50 [37]?
Answer: Its GI50 is greater than 100 µM.

Question: And the TGI [37]?
Answer: Its TGI is greater than 100 µM.

Question: What about the GI50 [38] of the same compound?
Answer: Its GI50 is greater than 100 µM.

Question: And the TGI [38]?
Answer: Its TGI is greater than 100 µM.

Question: What about the GI50 [39] of the same compound?
Answer: The GI50 was greater than 100 µM.

Question: What about the TGI [39] of the same compound?
Answer: Its TGI is greater than 100 µM.

Question: And the GI50 [40]?
Answer: The GI50 was greater than 100 µM.

Question: What about the TGI [40] of the same compound?
Answer: Its TGI is greater than 100 µM.

Question: And the GI50 [41]?
Answer: Its GI50 is greater than 100 µM.

Question: And the TGI [41]?
Answer: Its TGI is greater than 100 µM.

Question: And the GI50 [42]?
Answer: Its GI50 is greater than 100 µM.

Question: And the TGI [42]?
Answer: Its TGI is greater than 100 µM.

Question: And the GI50 [43]?
Answer: The GI50 was greater than 100 µM.

Question: What about the TGI [43] of the same compound?
Answer: Its TGI is greater than 100 µM.

Question: And the GI50 [44]?
Answer: Its GI50 is greater than 100 µM.

Question: What about the TGI [44] of the same compound?
Answer: The TGI was greater than 100 µM.

Question: What about the GI50 [45] of the same compound?
Answer: The GI50 was greater than 100 µM.

Question: What about the TGI [45] of the same compound?
Answer: The TGI was greater than 100 µM.

Question: What about the GI50 [46] of the same compound?
Answer: Its GI50 is greater than 100 µM.

Question: What about the TGI [46] of the same compound?
Answer: The TGI was greater than 100 µM.

Question: And the GI50 [47]?
Answer: The GI50 was greater than 100 µM.

Question: And the TGI [47]?
Answer: Its TGI is greater than 100 µM.

Question: And the GI50 [48]?
Answer: Its GI50 is greater than 100 µM.

Question: And the TGI [48]?
Answer: The TGI was greater than 100 µM.

Question: What about the GI50 [49] of the same compound?
Answer: Its GI50 is greater than 100 µM.

Question: And the TGI [49]?
Answer: Its TGI is greater than 100 µM.

Question: And the GI50 [50]?
Answer: The GI50 was greater than 100 µM.

Question: What about the TGI [50] of the same compound?
Answer: Its TGI is greater than 100 µM.

Question: What about the GI50 [51] of the same compound?
Answer: Its GI50 is greater than 100 µM.

Question: And the TGI [51]?
Answer: Its TGI is greater than 100 µM.

Question: What about the GI50 [52] of the same compound?
Answer: The GI50 was greater than 100 µM.

Question: What about the TGI [52] of the same compound?
Answer: The TGI was greater than 100 µM.

Question: And the GI50 [53]?
Answer: The GI50 was greater than 100 µM.

Question: And the TGI [53]?
Answer: The TGI was greater than 100 µM.

Question: What about the GI50 [54] of the same compound?
Answer: Its GI50 is greater than 100 µM.

Question: And the TGI [54]?
Answer: The TGI was greater than 100 µM.

Question: And the GI50 [55]?
Answer: The GI50 was greater than 100 µM.

Question: And the TGI [55]?
Answer: Its TGI is greater than 100 µM.

Question: And the GI50 [56]?
Answer: Its GI50 is greater than 100 µM.

Question: What about the TGI [56] of the same compound?
Answer: Its TGI is greater than 100 µM.

Question: What about the GI50 [57] of the same compound?
Answer: Its GI50 is greater than 100 µM.

Question: What about the TGI [57] of the same compound?
Answer: The TGI was greater than 100 µM.

Question: What about the GI50 [58] of the same compound?
Answer: Its GI50 is greater than 100 µM.

Question: What about the TGI [58] of the same compound?
Answer: The TGI was greater than 100 µM.
